# “And” between values parts separate entries of the source, which are not always exact repeats. Equal values may be shown once.
# Key:
# tumor putrescine levels = conditions: eflornithine infusion, without suppressing peripheral platelet counts; cited from earlier work
# [1] = system: tumors harboring Ki-ras mutations; conditions: AOM-treated rats, reduced from 90% (Singh et al., 1994); cited from earlier work
# [2] = NMTRC003 phase II prevention trial: adverse events; assay type: in vivo
# Protocol: Dosing diaries were required to be completed for each cycle. […] The primary endpoint was Event Free Survival (EFS); secondary objectives included Overall Survival (OS) and safety. EFS was defined as the period from the first day of administration of study drug to the first occurrence of relapse or death, and OS was defined as the first day of administration of study drug until death; subjects without an event were censored at the time of last contact. Safety analysis was conducted on all subjects who received at least one dose of study drug, and included the frequency, grading, expectedness and attribution of all adverse events as well as dose interruptions, dose reductions, and treatment discontinuation.
# [3] = adults; cited from earlier work
# [4] = NMTRC 002: DFMO serum pharmacokinetics in children with NB; conditions: for AUC(0-t) / Tmax / Cmax: human, serum
# Protocol: Pharmacokinetic (PK) Analytical Method and Sample Collection. Patients were consented for all pharmacokinetic sampling and analysis. […] The extracted samples were injected into a liquid chromatograph equipped with an Atlantis Hilic Silica, 50×4.6 mm, 3 μm column. The mobile phase A was a mixture of Milli-Q type water with acetonitrile and ammonium acetate. The validated calibration range for this assay was from 50 to 100,000 ng/mL. […] Blood was not collected beyond 6 hours post dose as this trial was conducted on an outpatient basis, and this was judged to be an undue burden on patients.
# Statistical Methods. […] Urinary polyamine levels were derived from duplicate measurements of individual samples. […] Fisher's Exact Test was used to assess the likelihood that increases in urinary polyamine levels were associated with disease progression. Friedman's test for repeated measures analysis of variance was used to assess changes in contents of individual urinary polyamines.
# Samples were collected from patients prior to, and again at times 0.5, 1, 3, and 6 hours following drug administration on days 1 and 8 of the first cycle. […] Subsequent cycles commenced the day following the last day of the previous cycle.
# [5] = human, in vivo, 27 4-week cycles
compound,measurement,setting,value
"NCCCC(N)(C(=O)O)C(F)F (stereo not drawn) [DFMO, 2,5-diamino-2-(difluoromethyl) pentanoic acid]",decrease in tumor putrescine levels,tumor putrescine levels,90%
same,tumors harboring Ki-ras mutations,[1],36%
same,patients with grade 2-3 transaminitis (most common toxicity),[2]; DFMO 500-1000 mg/m^2 BID,< 10%
same,tolerability,[2]; DFMO 500-1000 mg/m^2 BID,well tolerated
same,"ALT elevation Grade 2, patients (%)","[2]; Stratum 1, n = 94",3 (3%)
same,"ALT elevation Grade 3, patients (%)","[2]; Stratum 1, n = 94",5 (5%)
same,"ALT elevation Grade 4, patients (%)","[2]; Stratum 1, n = 94",0
same,"ALT elevation Grade 5, patients (%)","[2]; Stratum 1, n = 94",0
same,"AST elevation Grade 2, patients (%)","[2]; Stratum 1, n = 94",3 (3%)
same,"AST elevation Grade 3, patients (%)","[2]; Stratum 1, n = 94",4 (4%)
same,"AST elevation Grade 4, patients (%)","[2]; Stratum 1, n = 94",0
same,"AST elevation Grade 5, patients (%)","[2]; Stratum 1, n = 94",0
same,"Agitation Grade 2, patients (%)","[2]; Stratum 1, n = 94",1 (1%)
same,"Agitation Grade 3, patients (%)","[2]; Stratum 1, n = 94",0
same,"Agitation Grade 4, patients (%)","[2]; Stratum 1, n = 94",0
same,"Agitation Grade 5, patients (%)","[2]; Stratum 1, n = 94",0
same,"Alopecia Grade 2, patients (%)","[2]; Stratum 1, n = 94",1 (1%)
same,"Alopecia Grade 3, patients (%)","[2]; Stratum 1, n = 94",0
same,"Alopecia Grade 4, patients (%)","[2]; Stratum 1, n = 94",0
same,"Alopecia Grade 5, patients (%)","[2]; Stratum 1, n = 94",0
same,"Anemia Grade 2, patients (%)","[2]; Stratum 1, n = 94",4 (4%)
same,"Anemia Grade 3, patients (%)","[2]; Stratum 1, n = 94",0
same,"Anemia Grade 4, patients (%)","[2]; Stratum 1, n = 94",0
same,"Anemia Grade 5, patients (%)","[2]; Stratum 1, n = 94",0
same,"Anorexia Grade 2, patients (%)","[2]; Stratum 1, n = 94",1 (1%)
same,"Anorexia Grade 3, patients (%)","[2]; Stratum 1, n = 94",0
same,"Anorexia Grade 4, patients (%)","[2]; Stratum 1, n = 94",0
same,"Anorexia Grade 5, patients (%)","[2]; Stratum 1, n = 94",0
same,"Diarrhea Grade 2, patients (%)","[2]; Stratum 1, n = 94",5 (5%)
same,"Diarrhea Grade 3, patients (%)","[2]; Stratum 1, n = 94",0
same,"Diarrhea Grade 4, patients (%)","[2]; Stratum 1, n = 94",0
same,"Diarrhea Grade 5, patients (%)","[2]; Stratum 1, n = 94",0
same,"Fever Grade 2, patients (%)","[2]; Stratum 1, n = 94",2 (2%)
same,"Fever Grade 3, patients (%)","[2]; Stratum 1, n = 94",0
same,"Fever Grade 4, patients (%)","[2]; Stratum 1, n = 94",0
same,"Fever Grade 5, patients (%)","[2]; Stratum 1, n = 94",0
same,"Hearing Loss Grade 2, patients (%)","[2]; Stratum 1, n = 94",2 (2%)
same,"Hearing Loss Grade 3, patients (%)","[2]; Stratum 1, n = 94",4 (4%)
same,"Hearing Loss Grade 4, patients (%)","[2]; Stratum 1, n = 94",0
same,"Hearing Loss Grade 5, patients (%)","[2]; Stratum 1, n = 94",0
same,"Hypoglycemia Grade 2, patients (%)","[2]; Stratum 1, n = 94",0
same,"Hypoglycemia Grade 3, patients (%)","[2]; Stratum 1, n = 94",0
same,"Hypoglycemia Grade 4, patients (%)","[2]; Stratum 1, n = 94",1 (1%)
same,"Hypoglycemia Grade 5, patients (%)","[2]; Stratum 1, n = 94",0
same,"Hypokalemia Grade 2, patients (%)","[2]; Stratum 1, n = 94",0
same,"Hypokalemia Grade 3, patients (%)","[2]; Stratum 1, n = 94",2 (2%)
same,"Hypokalemia Grade 4, patients (%)","[2]; Stratum 1, n = 94",0
same,"Hypokalemia Grade 5, patients (%)","[2]; Stratum 1, n = 94",0
same,"INR Elevated Grade 2, patients (%)","[2]; Stratum 1, n = 94",1 (1%)
same,"INR Elevated Grade 3, patients (%)","[2]; Stratum 1, n = 94",0
same,"INR Elevated Grade 4, patients (%)","[2]; Stratum 1, n = 94",0
same,"INR Elevated Grade 5, patients (%)","[2]; Stratum 1, n = 94",0
same,"Infection, Other Grade 5, patients (%)","[2]; Stratum 1, n = 94",0
same,"Infection, middle ear Grade 5, patients (%)","[2]; Stratum 1, n = 94",0
same,"Neutrophil count decrease Grade 2, patients (%)","[2]; Stratum 1, n = 94",4 (4%)
same,"Neutrophil count decrease Grade 3, patients (%)","[2]; Stratum 1, n = 94",3 (3%)
same,"Neutrophil count decrease Grade 4, patients (%)","[2]; Stratum 1, n = 94",0
same,"Neutrophil count decrease Grade 5, patients (%)","[2]; Stratum 1, n = 94",0
same,"Pain Grade 2, patients (%)","[2]; Stratum 1, n = 94",2 (2%)
same,"Pain Grade 3, patients (%)","[2]; Stratum 1, n = 94",0
same,"Pain Grade 4, patients (%)","[2]; Stratum 1, n = 94",0
same,"Pain Grade 5, patients (%)","[2]; Stratum 1, n = 94",0
same,"Platelet count decrease Grade 2, patients (%)","[2]; Stratum 1, n = 94",2 (2%)
same,"Platelet count decrease Grade 3, patients (%)","[2]; Stratum 1, n = 94",0
same,"Platelet count decrease Grade 4, patients (%)","[2]; Stratum 1, n = 94",0
same,"Platelet count decrease Grade 5, patients (%)","[2]; Stratum 1, n = 94",0
same,"Post Nasal Drip Grade 2, patients (%)","[2]; Stratum 1, n = 94",1 (1%)
same,"Post Nasal Drip Grade 3, patients (%)","[2]; Stratum 1, n = 94",0
same,"Post Nasal Drip Grade 4, patients (%)","[2]; Stratum 1, n = 94",0
same,"Post Nasal Drip Grade 5, patients (%)","[2]; Stratum 1, n = 94",0
same,"Rash Grade 2, patients (%)","[2]; Stratum 1, n = 94",1 (1%)
same,"Rash Grade 3, patients (%)","[2]; Stratum 1, n = 94",0
same,"Rash Grade 4, patients (%)","[2]; Stratum 1, n = 94",0
same,"Rash Grade 5, patients (%)","[2]; Stratum 1, n = 94",0
same,"Weight Gain Grade 2, patients (%)","[2]; Stratum 1, n = 94",1 (1%)
same,"Weight Gain Grade 3, patients (%)","[2]; Stratum 1, n = 94",0
same,"Weight Gain Grade 4, patients (%)","[2]; Stratum 1, n = 94",0
same,"Weight Gain Grade 5, patients (%)","[2]; Stratum 1, n = 94",0
same,"White blood cell decreased Grade 2, patients (%)","[2]; Stratum 1, n = 94",2 (2%)
same,"White blood cell decreased Grade 3, patients (%)","[2]; Stratum 1, n = 94",0
same,"White blood cell decreased Grade 4, patients (%)","[2]; Stratum 1, n = 94",0
same,"White blood cell decreased Grade 5, patients (%)","[2]; Stratum 1, n = 94",0
same,patients with an increase in hearing loss,"[2]; among patients with pre-existing hearing loss, all returned to baseline after holding medication",4 patients
same,"Infection, Other Grade 2, patients (%)",[2]; [5],2 (2%)
same,"Infection, Other Grade 3, patients (%)",[2]; [5],0
same,"Infection, Other Grade 4, patients (%)",[2]; [5],0
same,"Infection, middle ear Grade 2, patients (%)",[2]; [5],2 (2%)
same,"Infection, middle ear Grade 3, patients (%)",[2]; [5],0
same,"Infection, middle ear Grade 4, patients (%)",[2]; [5],0
same,population that did not report any related adverse events,[2]; over 2 years,67%
same,serious adverse events (SAE),[2]; whole study,only one SAE involving hypoglycemia
same,elimination half-life of DFMO,[3],2 to 4 h
same,AUC0-6 hrs,"[4]; 500 mg/m^2 PO BID, Cycle 1",39.90 ± 24.16 (mcg/mL) × hrs
same,AUC0-6 hrs,"[4]; 750 mg/m^2 PO BID, Cycle 1",47.36 ± 18.57 (mcg/mL) × hrs
same,AUC0-6 hrs,"[4]; 750 mg/m^2 PO BID, Cycle 2 (with etoposide)",62.84 ± 39.47 (mcg/mL) × hrs
same,AUC0-6 hrs,"[4]; 1000 mg/m^2 PO BID, Cycle 1",60.05 ± 34.53 (mcg/mL) × hrs
same,AUC0-6 hrs,"[4]; 1000 mg/m^2 PO BID, Cycle 2 (with etoposide)",50.18 ± 32.57 (mcg/mL) × hrs
same,AUC0-6 hrs,"[4]; 1500 mg/m^2 PO BID, Cycle 1",108.38 ± 53.23 (mcg/mL) × hrs
same,AUC0-6 hrs,"[4]; 1500 mg/m^2 PO BID, Cycle 2 (with etoposide)",120.69 ± 31.22 (mcg/mL) × hrs
same,biologically effective doses of DFMO (serum concentration range),[4]; from clinical benefit in this study and adult cancer prevention studies,50-150 μM
same,AUC(0-t),"[4]; oral, 500 mg/m2",39000 ng·h/mL
same,AUC(0-t),"[4]; oral, 1500 mg/m2",121000 ng·h/mL
same,Tmax,"[4]; oral, mean tmax, all dose groups",2.5 to 3.75 h
same,Cmax,"[4]; po, 500 mg/m2, Cmax mean ± SD, 500 mg/m^2 PO BID, Cycle 1",9540 ± 5360 ng/mL
same,Tmax,"[4]; po, 500 mg/m2, tmax, 500 mg/m^2 PO BID, Cycle 1",3.75 ± 1.39 h
same,Cmax,"[4]; po, 750 mg/m2, Cmax mean ± SD, 750 mg/m^2 PO BID, Cycle 1",11900 ± 5220 ng/mL
same,Cmax,"[4]; po, 750 mg/m2, Cmax mean ± SD, 750 mg/m^2 PO BID, Cycle 2 (with etoposide)",14200 ± 7920 ng/mL
same,Tmax,"[4]; po, 750 mg/m2, tmax, 750 mg/m^2 PO BID, Cycle 1",3.6 ± 1.26 h
same,Tmax,"[4]; po, 750 mg/m2, tmax, 750 mg/m^2 PO BID, Cycle 2 (with etoposide)",2.6 ± 0.89 h
same,Cmax,"[4]; po, 1000 mg/m2, Cmax mean ± SD, 1000 mg/m^2 PO BID, Cycle 1",14700 ± 9070 ng/mL
same,Cmax,"[4]; po, 1000 mg/m2, Cmax mean ± SD, 1000 mg/m^2 PO BID, Cycle 2 (with etoposide)",14300 ± 6180 ng/mL
same,Tmax,"[4]; po, 1000 mg/m2, tmax, 1000 mg/m^2 PO BID, Cycle 1",3.17 ± 1.6 h
same,Tmax,"[4]; po, 1000 mg/m2, tmax, 1000 mg/m^2 PO BID, Cycle 2 (with etoposide)",3 h
same,Cmax,"[4]; po, 1500 mg/m2, Cmax mean ± SD, 1500 mg/m^2 PO BID, Cycle 1",29000 ± 15000 ng/mL
same,Cmax,"[4]; po, 1500 mg/m2, Cmax mean ± SD, 1500 mg/m^2 PO BID, Cycle 2 (with etoposide)",30700 ± 8180 ng/mL
same,Tmax,"[4]; po, 1500 mg/m2, tmax, 1500 mg/m^2 PO BID, Cycle 1",2.88 ± 1.45 h
same,Tmax,"[4]; po, 1500 mg/m2, tmax, 1500 mg/m^2 PO BID, Cycle 2 (with etoposide)",2.5 ± 0.9 h
same,mean Cmax and AUC versus oral dose,"[4]; in vivo, po",increased in a linear fashion
same,Overall average serum DFMO concentration,[4]; patients receiving 500 mg/m^2,9.54 μg/mL and 52.24 μM
same,Overall average serum DFMO concentration,[4]; patients receiving 1500 mg/m^2,30.71 μg/mL and 168.10 μM

# — US12582625B2, “Methods for treating neuroblastoma” (priority 2015, dated 2026)
